Measured values: the supplement of paper PMC6965134
± gives the standard deviation of the averaged measurements.

Assay: TIMS collisional cross section (CCS, N2) of the lipid ion; higher = larger ion cross section
Details: ionization mode: positive, one isomer drawn

SMILES	TIMS collisional cross section (sample type: HeLa)	TIMS collisional cross section (sample type: Liver)	TIMS collisional cross section (sample type: plasma)
CCCCC/C=C\CCCCCCCC(=O)OC[C@@H](COC(=O)CCCCCCCCCCC)OC(=O)CCCCCCCCCCCCC [TG 12:0_14:0_15:1] (ion (formula + adduct): [C44H82O6+NH4] 1+)	289.5 Å²		
CCCCCCCCCCCCCCCC(=O)OC[C@@H](COC(=O)CCCCCCCCCCC)OC(=O)CCCCCCCCCCCCC [TG 12:0_14:0_16:0] (ion (formula + adduct): [C45H86O6+NH4] 1+)	294.93 ± 0.32 Å²	295.2 ± 0.42 Å²	295.5 Å²
CCCCCC/C=C\CCCCCCCC(=O)OC[C@@H](COC(=O)CCCCCCCCCCC)OC(=O)CCCCCCCCCCCCC [TG 12:0_14:0_16:1] (ion (formula + adduct): [C45H84O6+NH4] 1+)	292.8 Å²		
CCCCCCCC/C=C\CCCCCCCC(=O)OC[C@@H](COC(=O)CCCCCCCCCCC)OC(=O)CCCCCCCCCCCCC [TG 12:0_14:0_18:1] (ion (formula + adduct): [C47H88O6+NH4] 1+)			298.9 Å²
CCCCC/C=C\C/C=C\CCCCCCCC(=O)OC[C@@H](COC(=O)CCCCCCCCCCC)OC(=O)CCCCCCCCCCCCC [TG 12:0_14:0_18:2] (ion (formula + adduct): [C47H86O6+NH4] 1+)		295.4 Å²	295.8 Å²
CCCC/C=C\CCCCCCCC(=O)O[C@H](COC(=O)CCCCCCCCCCC)COC(=O)CCCCCCCCCCCCCCC [TG 12:0_14:1_16:0] (ion (formula + adduct): [C45H84O6+NH4] 1+)			291.9 Å²
CCCC/C=C\CCCCCCCC(=O)O[C@@H](COC(=O)CCCCCCC/C=C\CCCCCC)COC(=O)CCCCCCCCCCC [TG 12:0_14:1_16:1] (ion (formula + adduct): [C45H82O6+NH4] 1+)	290.3 Å²		
CCCC/C=C\CCCCCCCC(=O)O[C@@H](COC(=O)CCCCCCC/C=C\C/C=C\CCCCC)COC(=O)CCCCCCCCCCC [TG 12:0_14:1_18:2] (ion (formula + adduct): [C47H84O6+NH4] 1+)			293.8 Å²
CCCCCCCCCCCCCCCCC(=O)OC[C@@H](COC(=O)CCCCCCCCCCC)OC(=O)CCCCCCCCCCCCCC [TG 12:0_15:0_17:0] (ion (formula + adduct): [C47H90O6+NH4] 1+)			302.1 Å²
CCCCCC/C=C\CCCCCCCC(=O)OC[C@@H](COC(=O)CCCCCCCCCCC)OC(=O)CCCCCCCCCCCCCCC [TG 12:0_16:0_16:1] (ion (formula + adduct): [C47H88O6+NH4] 1+)		299.2 Å²	
CCCCCCCCCCCCCCCCC(=O)OC[C@@H](COC(=O)CCCCCCCCCCC)OC(=O)CCCCCCCCCCCCCCC [TG 12:0_16:0_17:0] (ion (formula + adduct): [C48H92O6+NH4] 1+)		304.5 Å²	
CCCCCCCC/C=C\CCCCCCCC(=O)OC[C@@H](COC(=O)CCCCCCCCCCC)OC(=O)CCCCCCCCCCCCCCC [TG 12:0_16:0_18:1] (ion (formula + adduct): [C49H92O6+NH4] 1+)	305.7 Å²		
CCCCC/C=C\C/C=C\C/C=C\C/C=C\CCCC(=O)OC[C@@H](COC(=O)CCCCCCCCCCC)OC(=O)CCCCCCCCCCCCCCC [TG 12:0_16:0_20:4] (ion (formula + adduct): [C51H90O6+NH4] 1+)			307.4 Å²
CC/C=C\C/C=C\C/C=C\C/C=C\C/C=C\C/C=C\CCC(=O)OC[C@@H](COC(=O)CCCCCCCCCCC)OC(=O)CCCCCCCCCCCCCCC [TG 12:0_16:0_22:6] (ion (formula + adduct): [C53H90O6+NH4] 1+)		307.6 Å²	
CCCCCC/C=C\CCCCCCCC(=O)O[C@H](COC(=O)CCCCCCCCCCC)COC(=O)CCCCCCCCCCCCCCCC [TG 12:0_16:1_17:0] (ion (formula + adduct): [C48H90O6+NH4] 1+)		303 Å²	
CCCCCC/C=C\CCCCCCCC(=O)O[C@@H](COC(=O)CCCCCCC/C=C\CCCCCCCC)COC(=O)CCCCCCCCCCC [TG 12:0_16:1_18:1] (ion (formula + adduct): [C49H90O6+NH4] 1+)			303.25 ± 0.35 Å²
CCCCC/C=C\C/C=C\CCCCCCCC(=O)OC[C@@H](COC(=O)CCCCCCCCCCC)OC(=O)CCCCCCC/C=C\CCCCCC [TG 12:0_16:1_18:2] (ion (formula + adduct): [C49H88O6+NH4] 1+)		301.1 Å²	
CCCCCCCCCCCCCCCC(=O)OC[C@@H](COC(=O)CCCCCCCCCCCC)OC(=O)CCCCCCCCCCCC [TG 13:0_13:0_16:0] (ion (formula + adduct): [C45H86O6+NH4] 1+)	295.3 Å²		

SMILES	TIMS collisional cross section (sample type: HeLa)	TIMS collisional cross section (sample type: Liver)	TIMS collisional cross section (sample type: plasma)
CCCCCCCCCCCCCC(=O)OC[C@@H](COC(=O)CCCCCCCCCCCC)OC(=O)CCCCCCCCCCCCC [TG 13:0_14:0_14:0] (ion (formula + adduct): [C44H84O6+NH4] 1+)			292.3 Å²
CCCCCCCCCCCCCCCC(=O)OC[C@@H](COC(=O)CCCCCCCCCCCC)OC(=O)CCCCCCCCCCCCC [TG 13:0_14:0_16:0] (ion (formula + adduct): [C46H88O6+NH4] 1+)	298.2 Å²	298.5 Å²	298.4 ± 0.14 Å²
CCCCCC/C=C\CCCCCCCC(=O)OC[C@@H](COC(=O)CCCCCCCCCCCC)OC(=O)CCCCCCCCCCCCC [TG 13:0_14:0_16:1] (ion (formula + adduct): [C46H86O6+NH4] 1+)	296.4 Å²	296 Å²	296.1 Å²
CCCCCCCCCCCCCCCCC(=O)OC[C@@H](COC(=O)CCCCCCCCCCCC)OC(=O)CCCCCCCCCCCCC [TG 13:0_14:0_17:0] (ion (formula + adduct): [C47H90O6+NH4] 1+)		301.8 Å²	
CCCCCCCC/C=C\CCCCCCCC(=O)OC[C@@H](COC(=O)CCCCCCCCCCCC)OC(=O)CCCCCCCCCCCCC [TG 13:0_14:0_18:1] (ion (formula + adduct): [C48H90O6+NH4] 1+)		303.1 Å²	
CC/C=C\C/C=C\C/C=C\C/C=C\C/C=C\C/C=C\CCC(=O)OC[C@@H](COC(=O)CCCCCCCCCCCC)OC(=O)CCCCCCCCCCCCC [TG 13:0_14:0_22:6] (ion (formula + adduct): [C52H88O6+NH4] 1+)		305.2 Å²	
CCCC/C=C\CCCCCCCC(=O)O[C@@H](COC(=O)CCCCCCC/C=C\CCCCCC)COC(=O)CCCCCCCCCCCC [TG 13:0_14:1_16:1] (ion (formula + adduct): [C46H84O6+NH4] 1+)	293.9 Å²	291.9 Å²	
CCCCCCCCCCCCCCCC(=O)OC[C@@H](COC(=O)CCCCCCCCCCCC)OC(=O)CCCCCCCCCCCCCC [TG 13:0_15:0_16:0] (ion (formula + adduct): [C47H90O6+NH4] 1+)	301.7 Å²	301.4 Å²	
CCCCCC/C=C\CCCCCCCC(=O)OC[C@@H](COC(=O)CCCCCCCCCCCC)OC(=O)CCCCCCCCCCCCCC [TG 13:0_15:0_16:1] (ion (formula + adduct): [C47H88O6+NH4] 1+)	299.7 Å²	299.6 Å²	
CCCCCCCCCCCCCCCC(=O)OC[C@@H](COC(=O)CCCCCCCCCCCC)OC(=O)CCCCCCCCCCCCCCC [TG 13:0_16:0_16:0] (ion (formula + adduct): [C48H92O6+NH4] 1+)	305 Å²		
CCCCCCCCCCCCCCCCC(=O)OC[C@@H](COC(=O)CCCCCCCCCCCC)OC(=O)CCCCCCCCCCCCCCC [TG 13:0_16:0_17:0] (ion (formula + adduct): [C49H94O6+NH4] 1+)	308 Å²		
CCCCCCCC/C=C\CCCCCCCC(=O)OC[C@@H](COC(=O)CCCCCCCCCCCC)OC(=O)CCCCCCCCCCCCCCC [TG 13:0_16:0_18:1] (ion (formula + adduct): [C50H94O6+NH4] 1+)			309.5 Å²
CCCCCC/C=C\CCCCCCCC(=O)O[C@@H](COC(=O)CCCCCCC/C=C\CCCCCCCC)COC(=O)CCCCCCCCCCCC [TG 13:0_16:1_18:1] (ion (formula + adduct): [C50H92O6+NH4] 1+)	306.8 Å²		
CCCCC/C=C\C/C=C\CCCCCCCC(=O)OC[C@@H](COC(=O)CCCCCCCCCCCC)OC(=O)CCCCCCC/C=C\CCCCCC [TG 13:0_16:1_18:2] (ion (formula + adduct): [C50H90O6+NH4] 1+)			305.3 Å²
CCCCCCCCCCCCCCC(=O)OC[C@@H](COC(=O)CCCCCCCCCCCCC)OC(=O)CCCCCCCCCCCCC [TG 14:0_14:0_15:0] (ion (formula + adduct): [C46H88O6+NH4] 1+)	297.1 Å²		
CCCCCCCCCCCCCCCC(=O)OC[C@@H](COC(=O)CCCCCCCCCCCCC)OC(=O)CCCCCCCCCCCCC [TG 14:0_14:0_16:0] (ion (formula + adduct): [C47H90O6+NH4] 1+)	301.7 Å²		301.3 ± 0.4 Å²
CCCCCC/C=C\CCCCCCCC(=O)OC[C@@H](COC(=O)CCCCCCCCCCCCC)OC(=O)CCCCCCCCCCCCC [TG 14:0_14:0_16:1] (ion (formula + adduct): [C47H88O6+NH4] 1+)	299.3 Å²	299.1 Å²	
